The source of these data is patent US20050282743A1, “Molecular interactions in cells” (Arbor Vita Corporation, priority 2001, published 2005).

Structures are written as SMILES. Several values for one entry are separate records, joined by “and”; a condition that tells them apart may be missing. Identical values can stand only once. Like-named read-outs stand apart in the source and are kept apart here. Peptide text beside a SMILES is read from it. * marks the point of attachment. Biotin = O=C1N[C@H]2[C@H](CS[C@H]2CCCCC(=O)*)N1

Holding throughout (format): binding
Assay [1] addresses T1, PDZ-domain polypeptide (GST/PDZ fusion protein) (Homo sapiens, UniProt Q15700).
T1 construct: made in house; host or cells: E. coli (DH5alpha, BL21 or JM109)
The experiment in a line: Apparent affinity (Kd) by titration of PL peptide in the G assay. As to conditions: PDZ DLG2, PDZ Domain 2; read-out: Peptide Optimal Conc (Kd by titration of the PL peptide). A digest of the protocol: (§1)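 A fixed concentration of GST/PDZ fusion protein, 5 ug/ml by default, was mixed in solution with increasing labeled PL peptide (e.g. 0.1 uM-1 mM). Reaction times ranged from 10 minutes to 2 days at 4-37° C. Complexes were separated from free peptide and detected via the label as in the G assay, apparent affinity coming from the saturating concentration.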

Another assay concerns the target T2, TIP-1 (GST-TIP-1 fusion) (Homo sapiens, UniProt O14907, I73S).
T2 construct: made in house; host or cells: E. coli DH5alpha
T2 sequence (O14907 3-123 I73S): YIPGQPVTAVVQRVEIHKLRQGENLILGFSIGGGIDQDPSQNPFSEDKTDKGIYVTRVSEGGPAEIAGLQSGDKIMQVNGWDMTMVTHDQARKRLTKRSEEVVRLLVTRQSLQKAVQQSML
In words: G assay peptide titration, dissociation constants (Example 3, TABLE 4). As to conditions: for OD (maximum absorbance) / Kd: biotinylated C-terminal 20-mer, 450 nm, 30 min. How it is done:
(§2) Binding between these molecules was assessed using a modified ELISA. Briefly, a GST-TIP-1 fusion was produced that contained the entire PDZ domain of human TIP-1 (Insert as in EXAMPLE 2). In addition, biotinylated peptides corresponding to the C-terminal 20 amino acids of Tax and CD95 were synthesized and purified by HPLC. Binding between these entities was detected through a colorimetric assay using avidin-HRP to bind the biotin and a peroxidase substrate (G-assay, as described supra). By titrating the amount of peptide and protein added to these reactions, dissociation constants (Kd) were determined as an indication of relative affinity of the peptide and fusion protein association.
(§3) (at last wash leave PBS in wells until immediately adding next step) • 6) Add proteins at 50 ul per well on ice (1 to 2 hrs at 4° C.) • 7) Prepare Peptides in 2% BSA (2 ml/row or /columns) • 8) 3× wash with cold PBS • 9) Add peptides at 50 ul per well on ice (time on/time off)
(§4) Using the protocol for the ‘G’ assay described above, dissociation constants were determined by titrating the amount of peptide against a set concentration of PDZ-containing protein. Kd values were determined by identifying the peptide concentration that gave half-maximal binding to the PDZ protein. Different concentrations of PDZ-containing protein were plated in order to achieve maximal peptide binding values that were less than the absorbance maximum of the ELISA plate reader.
(§5) Proteins on the left are GST fusions to the PDZ domain(s) of protein indicated. Numbers in parenthesis indicate the number of PDZ domains present in the fusion construct, from the amino-terminus of the first number listed to the carboxyl terminus of the second. PDZ Ligands are listed across the top of the table, representing biotinylated peptides corresponding to the carboxy-terminal 20 amino acids of each protein. The first three columns following the PDZ indicate the concentration of fusion protein plated for the G assay, followed by the wavelength and time of reading from addition of TMB substrate. 450 nm indicates a reaction halted by addition of sulfuric acid and absorbance read at 450 nm. Values beneath each ligand indicate first the maximum absorbance followed by the observed Kd in uM. Numbers in the squares are the average of duplicate or quadruplicate reactions. Blank squares indicate that the Kd for the interaction was not tested under those conditions on the same sample plate. No binding to GST alone is observed.

In another assay the target is T3, DLG1(1-2) (Homo sapiens, UniProt Q12959).
T3 construct: made in house; host or cells: E. coli (DH5alpha, BL21 or JM109)
The assay is described as above. As to conditions: biotinylated C-terminal 20-mer, 450 nm, 30 min. The method, then: as §2, §3, §4, §5

The target in assay [2] is T4, PDZ-domain polypeptide (GST/PDZ fusion protein) (Homo sapiens, UniProt Q12959).
T4 construct: made in house; host or cells: E. coli (DH5alpha, BL21 or JM109)
In words: Apparent affinity (Kd) by titration of PL peptide in the G assay. As to conditions: PDZ DLG1, PDZ Domain 1, 2; titration of the PL peptide; read-out: Peptide Optimal Conc (Kd, dissociation constant). A digest of the protocol:
as §1

Assay [3] deals with T5, PDZ-domain polypeptide (GST/PDZ fusion protein) (Homo sapiens, UniProt Q8TEW0).
T5 construct: made in house; host or cells: E. coli (DH5alpha, BL21 or JM109)
The description is as above. As to conditions: PDZ PAR3, PDZ Domain 3. Put shortly: as §1

Assay [4] concerns the target T6, PDZ-domain polypeptide (GST/PDZ fusion protein) (Homo sapiens, UniProt Q9NRD5).
T6 construct: made in house; host or cells: E. coli (DH5alpha, BL21 or JM109)
Described as above. As to conditions: PDZ PICK1, PDZ Domain 1. A digest of the protocol: as §1

Setting [5] is: Peptide Optimal Conc (Kd by titration of the PL peptide).

T3 sequence (Q12959 213-413 limits assumed): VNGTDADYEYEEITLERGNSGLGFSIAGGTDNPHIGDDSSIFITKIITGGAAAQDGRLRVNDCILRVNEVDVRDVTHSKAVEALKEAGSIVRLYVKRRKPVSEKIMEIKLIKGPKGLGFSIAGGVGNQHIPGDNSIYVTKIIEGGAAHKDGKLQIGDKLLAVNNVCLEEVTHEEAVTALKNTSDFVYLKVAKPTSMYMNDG
T6 sequence (Q9NRD5 whole entry, the tested form may be a part): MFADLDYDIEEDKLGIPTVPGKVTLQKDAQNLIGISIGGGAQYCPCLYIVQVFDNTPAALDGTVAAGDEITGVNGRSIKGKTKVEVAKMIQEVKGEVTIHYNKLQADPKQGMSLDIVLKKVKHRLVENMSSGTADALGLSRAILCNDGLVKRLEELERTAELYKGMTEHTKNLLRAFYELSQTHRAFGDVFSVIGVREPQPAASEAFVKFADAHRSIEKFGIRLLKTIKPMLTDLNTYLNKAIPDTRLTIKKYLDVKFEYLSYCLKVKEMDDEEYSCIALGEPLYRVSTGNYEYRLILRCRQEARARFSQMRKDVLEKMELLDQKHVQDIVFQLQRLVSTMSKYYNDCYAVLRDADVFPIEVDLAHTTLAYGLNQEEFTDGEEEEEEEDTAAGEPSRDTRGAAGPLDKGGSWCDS
T5 sequence (Q8TEW0 whole entry, the tested form may be a part): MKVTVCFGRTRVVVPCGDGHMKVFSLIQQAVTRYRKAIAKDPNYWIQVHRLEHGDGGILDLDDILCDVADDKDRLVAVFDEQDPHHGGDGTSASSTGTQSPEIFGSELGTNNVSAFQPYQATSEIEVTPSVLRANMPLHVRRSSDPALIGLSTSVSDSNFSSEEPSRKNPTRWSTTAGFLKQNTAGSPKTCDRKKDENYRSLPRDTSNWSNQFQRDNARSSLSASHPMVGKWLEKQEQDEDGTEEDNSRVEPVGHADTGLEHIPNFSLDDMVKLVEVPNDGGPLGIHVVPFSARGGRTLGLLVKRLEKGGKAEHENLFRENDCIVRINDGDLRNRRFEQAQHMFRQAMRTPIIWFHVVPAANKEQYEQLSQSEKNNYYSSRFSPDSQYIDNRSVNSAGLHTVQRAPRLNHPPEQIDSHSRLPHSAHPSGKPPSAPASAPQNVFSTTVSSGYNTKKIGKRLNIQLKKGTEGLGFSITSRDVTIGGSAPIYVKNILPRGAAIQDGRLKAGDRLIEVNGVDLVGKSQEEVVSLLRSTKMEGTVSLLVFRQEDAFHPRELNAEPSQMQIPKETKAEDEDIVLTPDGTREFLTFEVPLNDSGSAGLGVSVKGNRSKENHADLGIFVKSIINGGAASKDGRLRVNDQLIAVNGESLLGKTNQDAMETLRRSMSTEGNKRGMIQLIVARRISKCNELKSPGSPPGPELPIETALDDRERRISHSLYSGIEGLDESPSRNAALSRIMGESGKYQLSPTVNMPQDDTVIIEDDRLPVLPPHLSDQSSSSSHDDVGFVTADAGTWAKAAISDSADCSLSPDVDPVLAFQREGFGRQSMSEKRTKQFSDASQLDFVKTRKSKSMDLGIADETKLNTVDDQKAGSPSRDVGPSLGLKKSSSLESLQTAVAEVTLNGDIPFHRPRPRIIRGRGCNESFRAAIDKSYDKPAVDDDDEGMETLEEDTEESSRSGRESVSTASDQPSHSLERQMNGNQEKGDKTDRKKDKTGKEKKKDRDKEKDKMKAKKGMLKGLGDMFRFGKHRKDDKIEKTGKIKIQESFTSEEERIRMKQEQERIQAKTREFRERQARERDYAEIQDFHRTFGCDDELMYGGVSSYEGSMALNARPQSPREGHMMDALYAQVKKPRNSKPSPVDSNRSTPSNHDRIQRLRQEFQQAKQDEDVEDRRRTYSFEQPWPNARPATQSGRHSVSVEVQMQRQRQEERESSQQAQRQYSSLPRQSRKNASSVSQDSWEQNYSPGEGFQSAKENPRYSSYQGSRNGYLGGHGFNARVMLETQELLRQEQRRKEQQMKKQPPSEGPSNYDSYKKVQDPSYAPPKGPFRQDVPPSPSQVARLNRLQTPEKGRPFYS
T4 sequence (Q12959 whole entry, the tested form may be a part): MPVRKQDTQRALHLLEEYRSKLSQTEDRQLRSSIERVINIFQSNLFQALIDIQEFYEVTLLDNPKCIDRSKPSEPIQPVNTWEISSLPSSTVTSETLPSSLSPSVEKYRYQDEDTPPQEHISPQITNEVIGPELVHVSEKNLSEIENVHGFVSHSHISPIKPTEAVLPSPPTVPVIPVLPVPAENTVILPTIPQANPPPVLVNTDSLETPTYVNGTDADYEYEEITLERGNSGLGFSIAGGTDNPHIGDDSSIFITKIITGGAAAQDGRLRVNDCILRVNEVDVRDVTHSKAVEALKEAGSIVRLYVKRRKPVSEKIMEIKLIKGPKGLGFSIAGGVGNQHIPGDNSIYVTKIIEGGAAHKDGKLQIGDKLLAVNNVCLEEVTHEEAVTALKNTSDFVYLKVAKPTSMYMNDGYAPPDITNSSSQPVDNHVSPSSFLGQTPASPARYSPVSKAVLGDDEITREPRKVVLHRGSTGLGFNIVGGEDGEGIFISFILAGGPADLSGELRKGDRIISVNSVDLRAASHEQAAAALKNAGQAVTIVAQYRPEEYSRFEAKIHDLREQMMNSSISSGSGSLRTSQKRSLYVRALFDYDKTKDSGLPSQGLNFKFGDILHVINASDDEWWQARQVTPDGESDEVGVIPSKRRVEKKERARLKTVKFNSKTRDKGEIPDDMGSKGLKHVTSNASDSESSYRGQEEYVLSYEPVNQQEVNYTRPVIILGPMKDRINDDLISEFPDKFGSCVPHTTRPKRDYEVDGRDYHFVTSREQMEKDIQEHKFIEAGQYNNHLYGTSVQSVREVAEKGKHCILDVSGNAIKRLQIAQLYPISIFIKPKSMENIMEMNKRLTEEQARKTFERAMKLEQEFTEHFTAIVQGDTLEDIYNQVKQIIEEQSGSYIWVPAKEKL
T1 sequence (Q15700 whole entry, the tested form may be a part): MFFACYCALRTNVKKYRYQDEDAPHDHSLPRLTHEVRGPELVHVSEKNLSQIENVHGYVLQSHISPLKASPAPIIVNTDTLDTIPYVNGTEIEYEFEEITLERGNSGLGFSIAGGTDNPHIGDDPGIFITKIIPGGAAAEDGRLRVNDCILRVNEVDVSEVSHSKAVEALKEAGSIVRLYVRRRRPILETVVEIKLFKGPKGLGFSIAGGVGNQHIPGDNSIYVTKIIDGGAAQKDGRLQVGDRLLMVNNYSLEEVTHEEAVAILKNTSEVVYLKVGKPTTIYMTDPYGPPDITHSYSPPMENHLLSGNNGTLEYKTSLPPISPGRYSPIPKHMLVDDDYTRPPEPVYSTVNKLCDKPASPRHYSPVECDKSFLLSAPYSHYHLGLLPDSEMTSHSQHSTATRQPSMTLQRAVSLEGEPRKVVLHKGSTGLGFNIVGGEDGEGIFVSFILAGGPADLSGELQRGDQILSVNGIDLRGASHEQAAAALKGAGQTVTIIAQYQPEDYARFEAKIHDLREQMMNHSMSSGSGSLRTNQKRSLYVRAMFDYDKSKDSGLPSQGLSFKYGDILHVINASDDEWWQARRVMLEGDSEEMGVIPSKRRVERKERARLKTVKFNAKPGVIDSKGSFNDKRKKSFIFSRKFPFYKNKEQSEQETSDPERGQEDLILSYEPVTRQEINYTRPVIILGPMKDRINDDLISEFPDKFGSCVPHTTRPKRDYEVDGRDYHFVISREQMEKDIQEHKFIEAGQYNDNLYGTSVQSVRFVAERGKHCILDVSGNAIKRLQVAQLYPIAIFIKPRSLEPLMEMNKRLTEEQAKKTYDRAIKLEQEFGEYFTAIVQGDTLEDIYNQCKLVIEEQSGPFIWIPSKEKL

Regarding `CSCC[C@H](NC(=O)[C@H](C)NC(=O)[C@H](CCCNC(=N)N)NC(=O)CNC(=O)[C@@H](NC(=O)[C@H](Cc1c[nH]c2ccccc12)NC(=O)[C@H](CCCNC(=N)N)NC(=O)CNC(=O)CCCC[C@@H]1SC[C@@H]2NC(=O)N[C@@H]21)[C@@H](C)O)C(=O)N[C@@H](CO)C(=O)N[C@@H](C)C(=O)N[C@@H](Cc1c[nH]c2ccccc12)C(=O)N[C@@H](CCCCN)C(=O)N1CCC[C@H]1C(=O)N[C@H](C(=O)N[C@@H](CCCNC(=N)N)C(=O)N[C@@H](CCCNC(=N)N)C(=O)N[C@@H](CCC(=O)O)C(=O)N[C@H](C(=O)N[C@@H](CCC(=O)O)C(=O)N[C@H](C(=O)O)C(C)C)[C@@H](C)O)[C@@H](C)O` [HPV E6 #35 (modified)] (Biotin-GRWTGRAMSAWKPTRRETEV-OH; C-terminus assumed), the Kd in assay [1] stood at 200 nM.
For the compound `CC[C@H](C)[C@H](NC(=O)[C@H](CCC(=O)O)NC(=O)[C@H](CC(N)=O)NC(=O)[C@H](CCCNC(=N)N)NC(=O)[C@H](Cc1ccccc1)NC(=O)[C@H](CC(N)=O)NC(=O)[C@H](CO)NC(=O)[C@H](CC(N)=O)NC(=O)[C@H](CCC(=O)O)NC(=O)[C@H](CO)NC(=O)[C@H](CC(=O)O)NC(=O)[C@H](CO)NC(=O)[C@@H](NC(=O)[C@@H](NC(=O)[C@H](CC(=O)O)NC(=O)[C@H](CCCCN)NC(=O)CCCC[C@@H]1SC[C@@H]2NC(=O)N[C@@H]21)[C@@H](C)CC)[C@@H](C)O)C(=O)N[C@@H](CCC(N)=O)C(=O)N[C@@H](CO)C(=O)N[C@@H](CC(C)C)C(=O)N[C@H](C(=O)O)C(C)C` [CD95] (Biotin-KDITSDSENSNFRNEIQSLV-OH; C-terminus assumed), the “OD (maximum absorbance)” value on TIP-1 (GST-TIP-1 fusion) (TIP-1 plated at 0.3 ug/ml) was 2.6 and 3.5; on DLG1(1-2) (DLG1(1-2) plated at 0.3 ug/ml), 2.6 and 2.1. In addition, the Kd at TIP-1 (GST-TIP-1 fusion) (TIP-1 plated at 0.3 ug/ml, read-out: Kd) was 20000 nM and 25000 nM; at DLG1(1-2) (DLG1(1-2) plated at 0.3 ug/ml, read-out: Kd) it was 15000 nM and 20000 nM.
For `CC[C@H](C)[C@H](NC(=O)[C@H](CCC(=O)O)NC(=O)[C@H](CO)NC(=O)[C@H](CCC(=O)O)NC(=O)[C@H](CCCNC(=N)N)NC(=O)[C@H](CCCNC(=N)N)NC(=O)[C@H](CC(C)C)NC(=O)[C@@H]1CCCN1C(=O)[C@H](CCCNC(=N)N)NC(=O)[C@@H]1CCCN1C(=O)[C@H](CCC(=O)O)NC(=O)[C@H](CC(C)C)NC(=O)[C@@H]1CCCN1C(=O)[C@@H](NC(=O)[C@H](CO)NC(=O)[C@H](C)NC(=O)[C@H](CCC(N)=O)NC(=O)[C@H](CC(N)=O)NC(=O)[C@H](Cc1c[nH]cn1)NC(=O)[C@H](CC(C)C)NC(=O)CCCC[C@@H]1SC[C@@H]2NC(=O)N[C@@H]21)C(C)C)C(=O)O` [Kir2.1 (inwardly rect. K+ channel)] (Biotin-LHNQASVPLEPRPLRRESEI-OH; C-terminus assumed), in assay [2], the Kd worked out at 5000 nM.
As for `CC[C@H](C)[C@H](NC(=O)[C@H](Cc1ccc(O)cc1)NC(=O)[C@H](CC(C)C)NC(=O)[C@H](CCC(N)=O)NC(=O)[C@H](Cc1c[nH]cn1)NC(=O)[C@H](CO)NC(=O)[C@H](C)NC(=O)[C@H](CC(C)C)NC(=O)[C@@H](NC(=O)[C@H](CC(=O)O)NC(=O)[C@H](CCSC)NC(=O)[C@H](Cc1ccccc1)NC(=O)[C@@H]1CCCN1C(=O)[C@H](CCCNC(=N)N)NC(=O)[C@@H](NC(=O)[C@H](CC(C)C)NC(=O)[C@H](CC(N)=O)NC(=O)[C@H](CC(=O)O)NC(=O)[C@@H](NC(=O)[C@H](CO)NC(=O)CCCC[C@@H]1SC[C@@H]2NC(=O)N[C@@H]21)[C@@H](C)O)C(C)C)[C@@H](C)O)C(=O)O` [presenilin-2] (Biotin-STDNLVRPFMDTLASHQLYI-OH; C-terminus assumed), the Kd in assay [3] (titration of the PL peptide, read-out: Peptide Optimal Conc (Kd, dissociation constant)) was determined as 2000 nM.
Consider `CC(C)C[C@H](NC(=O)[C@H](Cc1c[nH]c2ccccc12)NC(=O)[C@H](Cc1c[nH]cn1)NC(=O)[C@H](CCCNC(=N)N)NC(=O)[C@H](CC(C)C)NC(=O)[C@@H](NC(=O)[C@H](Cc1ccccc1)NC(=O)[C@H](CCC(N)=O)NC(=O)[C@H](CCCNC(=N)N)NC(=O)[C@@H](NC(=O)[C@H](CCC(=O)O)NC(=O)CNC(=O)[C@H](CCCNC(=N)N)NC(=O)[C@H](CC(=O)O)NC(=O)[C@@H](NC(=O)[C@H](CC(C)C)NC(=O)[C@H](CCC(=O)O)NC(=O)[C@H](CCCNC(=N)N)NC(=O)CCCC[C@@H]1SC[C@@H]2NC(=O)N[C@@H]21)C(C)C)C(C)C)[C@@H](C)O)C(=O)N[C@@H](CCCCN)C(=O)N[C@H](C(=O)O)C(C)C` [Dopamine transporter (Na+-dependent)] (Biotin-RELVDRGEVRQFTLRHWLKV-OH; C-terminus assumed), for which the Kd in assay [4] (read-out: Peptide Optimal Conc (Kd by titration of the PL peptide)) amounted to 900 nM.
Take `CC[C@H](C)[C@H](NC(=O)[C@H](CCC(N)=O)NC(=O)CCCC[C@@H]1SC[C@@H]2NC(=O)N[C@@H]21)C(=O)N[C@@H](CO)C(=O)N1CCC[C@H]1C(=O)NCC(=O)NCC(=O)N[C@@H](CC(C)C)C(=O)N[C@@H](CCC(=O)O)C(=O)N1CCC[C@H]1C(=O)N1CCC[C@H]1C(=O)N[C@@H](CO)C(=O)N[C@@H](CCC(=O)O)C(=O)N[C@@H](CCCCN)C(=O)N[C@@H](Cc1c[nH]cn1)C(=O)N[C@@H](Cc1ccccc1)C(=O)N[C@@H](CCCNC(=N)N)C(=O)N[C@@H](CCC(=O)O)C(=O)N[C@H](C(=O)N[C@@H](CCC(=O)O)C(=O)N[C@H](C(=O)O)C(C)C)[C@@H](C)O` [Tax]: the Kd was 5 nM at TIP-1 (GST-TIP-1 fusion) (Kd, TIP-1 plated at 0.1 ug/ml); 130 nM and 200 nM on DLG1(1-2) (Kd, DLG1(1-2) plated at 0.1 ug/ml). Besides, at TIP-1 (GST-TIP-1 fusion) (Tax:TIP-1 versus CD95:TIP-1), the “binding to TIP-1 relative to CD95 (comparison of dissociation constants)” value is above 3000 fold. Besides, the “OD (maximum absorbance)” value on TIP-1 (GST-TIP-1 fusion) (TIP-1 plated at 0.1 ug/ml) is 3.3 and 2.1. On TIP-1 (GST-TIP-1 fusion) (equivalent peptide concentrations, equivalent amount of GST-TIP-1), the “affinity for GST-TIP-1 relative to CD95 (FIG. 2A)” value was “much higher affinity than does CD95”.
Turning to `CC[C@H](C)[C@H](NC(=O)[C@H](C)NC(=O)[C@H](CC(C)C)NC(=O)[C@H](Cc1c[nH]c2ccccc12)NC(=O)[C@H](Cc1c[nH]cn1)NC(=O)[C@H](CCC(N)=O)NC(=O)[C@H](CC(C)C)NC(=O)[C@H](CCC(N)=O)NC(=O)[C@H](Cc1ccccc1)NC(=O)[C@H](CCC(N)=O)NC(=O)[C@H](CCCNC(=N)N)NC(=O)[C@@H](NC(=O)[C@H](CC(=O)O)NC(=O)[C@H](CCCNC(=N)N)NC(=O)[C@H](CCC(N)=O)NC(=O)[C@H](C)NC(=O)[C@@H](NC(=O)[C@H](CC(C)C)NC(=O)[C@H](Cc1c[nH]cn1)NC(=O)[C@H](Cc1c[nH]cn1)NC(=O)CCCC[C@@H]1SC[C@@H]2NC(=O)N[C@@H]21)C(C)C)[C@@H](C)CC)C(=O)O` [noradrenaline transporter] (Biotin-HHLVAQRDIRQFQLQHWLAI-OH; C-terminus assumed), the results for the Kd in assay [4] (setting [5]) and in assay [3] (setting [5]) were 1000 nM and 600 nM, respectively.
